{"source": "patent US20260060972A1", "about": "“Quantitative Method of Determining a Mental Status Based on DRD1 and/or DRD5, and its Application Thereof” (priority 2022, published 2026)", "key": {"DRD1 membrane protein": {"test_system": "DRD1 membrane protein", "conditions": "treatment for 36 hrs"}, "human DRD1 gene": {"test_system": "human DRD1 gene", "experiment": "DRD1 mRNA expression by quantitative real time-PCR in SH-SY5Y cells", "conditions": "for DRD1 mRNA expression, time response: 10 μM, 12, 18, 24, 30 or 32 hrs; for effect of Haloperidol co-treatment on SCH23390-decreased DRD1 mRNA expression: Haloperidol 10 μM co-treatment 12 hrs"}, "[1]": {"test_system": "2.8-kb human DRD1 gene promoter", "experiment": "Dual-luciferase reporter assay of human DRD1 gene promoter in SH-SY5Y cells", "conditions": "for effect on SCH23390/SKF81297-altered DRD1 promoter activity: co-treatment with SCH23390 or SKF81297"}, "[2]": {"conditions": "10 μM, treatment for 18 hrs (FIG. 2A, 3A)"}, "[3]": {"conditions": "10 μM, treatment for 24 hrs (FIG. 2A, 3A)"}}, "note": "“Also recorded” adds a separate entry of the source.", "data": [{"compound": "CN1CCc2cc(Cl)c(O)cc2[C@@H](c2ccccc2)C1", "note": "[SCH23390, SCH-23390]", "values": [{"measurement": "decrease of DRD1 membrane protein", "setting": "DRD1 membrane protein", "value": "more than 70%"}]}, {"compound": "O=C(CCCN1CCC(O)(c2ccc(Cl)cc2)CC1)c1ccc(F)cc1", "note": "[Haloperidol]", "values": [{"measurement": "DRD1 mRNA expression, time response", "setting": "human DRD1 gene; SH-SY5Y cells (FIG. 1A)", "value": "did not alter DRD1 mRNA expression at any time points"}, {"measurement": "DRD1 mRNA and protein expression, treatment alone (summary)", "setting": "human DRD1 gene; 10 μM, SH-SY5Y cells", "value": "does not alter DRD1 expression"}, {"measurement": "DRD1 mRNA expression, treatment alone", "setting": "human DRD1 gene; [2]", "value": "did not alter DRD1 mRNA expression"}, {"measurement": "DRD1 mRNA expression, treatment alone", "setting": "human DRD1 gene; [3]", "value": "did not alter DRD1 mRNA expression"}, {"measurement": "effect of Haloperidol co-treatment on SKF81297-increased DRD1 mRNA expression", "setting": "human DRD1 gene; Haloperidol co-treatment for 12 hrs (FIG. 3A)", "value": "completely diminished SKF81297-increased DRD1 mRNA expression"}, {"measurement": "effect of Haloperidol co-treatment on SCH23390-decreased DRD1 mRNA expression", "setting": "human DRD1 gene; SCH23390 10 μM for 18 hrs", "value": "completely reversed"}, {"measurement": "effect of Haloperidol co-treatment on SCH23390-decreased DRD1 mRNA expression", "setting": "human DRD1 gene; SCH23390 10 μM for 24 hrs", "value": "not reversed"}, {"measurement": "effect of Haloperidol co-treatment on SCH23390-decreased DRD1 mRNA and protein expression (summary)", "setting": "human DRD1 gene; SH-SY5Y cells (FIGS. 2A-2E)", "value": "reverses SCH23390-decreased DRD1 mRNA and protein expression; also recorded: reversed"}, {"measurement": "effect of Haloperidol co-treatment on SKF81297-increased DRD1 mRNA and protein expression (summary)", "setting": "human DRD1 gene; SH-SY5Y cells (FIGS. 3A-3E)", "value": "attenuated SKF81297-increased DRD1 mRNA and protein expression"}, {"measurement": "human DRD1 gene promoter activity, treatment alone", "setting": "[1]; 2.8-kb promoter luciferase reporter, SCH23390 and SKF81297 for 36 hrs (FIG. 4A, 4B)", "value": "did not change human DRD1 gene promoter activity"}, {"measurement": "effect of haloperidol cotreatment on SCH23390-repressed DRD1 promoter activity", "setting": "[1]; SCH23390 36 hrs, haloperidol cotreatment 24 or 36 hrs (FIG. 4A)", "value": "reversed"}, {"measurement": "effect of haloperidol co-treatment on SKF81297-activated DRD1 promoter activity", "setting": "[1]; SKF81297 36 hrs, haloperidol co-treatment 24 and 36 hrs (FIG. 4B)", "value": "markedly attenuated"}, {"measurement": "effect on SCH23390/SKF81297-altered DRD1 promoter activity", "setting": "[1]", "value": "reversed SCH23390/SKF21897-altered DRD1 promoter activity; also recorded: reversed either SCH23390 or SKF81297-altered human DRD1 promoter activity"}]}, {"compound": "CN(C)C(=O)N[C@H]1CC[C@H](CCN2CCN(c3cccc(Cl)c3Cl)CC2)CC1", "note": "[Cariprazine]", "values": [{"measurement": "effect on SCH23390/SKF81297-altered DRD1 promoter activity", "setting": "[1]", "value": "trans-stabilize SCH23390/SKF81297-altered DRD1 promoter activity"}]}, {"compound": "Oc1cc2c(c(Cl)c1O)CCNCC2c1ccccc1", "note": "(stereo not drawn) [SKF81297, SKF-81297]", "values": [{"measurement": "DRD1 mRNA expression, time response", "setting": "human DRD1 gene; SH-SY5Y cells (FIG. 1A)", "value": "time-dependently increased DRD1 mRNA expression"}, {"measurement": "increase of DRD1 mRNA expression", "setting": "human DRD1 gene; 10 μM, 24 hrs later, SH-SY5Y cells (FIG. 1A)", "value": 6, "unit": "fold"}, {"measurement": "DRD1 mRNA expression 30 hrs later and thereafter", "setting": "human DRD1 gene; 10 μM, 30 hrs later and thereafter, SH-SY5Y cells", "value": "decreased to basal level"}, {"measurement": "DRD1 mRNA and protein expression, treatment alone (summary)", "setting": "human DRD1 gene; 10 μM, SH-SY5Y cells", "value": "increases DRD1 mRNA and protein expression in a time-dependent manner"}, {"measurement": "DRD1 mRNA expression, treatment alone", "setting": "human DRD1 gene; [2]", "value": "increased human DRD1 mRNA expression"}, {"measurement": "DRD1 mRNA expression, treatment alone", "setting": "human DRD1 gene; [3]", "value": "increased human DRD1 mRNA expression"}]}, {"compound": "Cc1nc2n(c(=O)c1CCN1CCC(c3noc4cc(F)ccc34)CC1)CCCC2", "note": "[Risperidone]", "values": [{"measurement": "relative Luciferase activity of DRD1 under treatment of SCH and antipsychotic", "setting": "[1]; co-treatment of SCH (FIG. 5A, 6A)", "value": "partial DRD1 antagonist effect"}, {"measurement": "relative Luciferase activity of DRD1 under treatment of SKF and antipsychotic", "setting": "[1]; co-treatment of SKF (FIG. 5B, 6B)", "value": "partial DRD1 antagonist effect"}, {"measurement": "effect on SCH23390/SKF81297-altered DRD1 promoter activity", "setting": "[1]", "value": "trans-stabilize SCH23390/SKF81297-altered DRD1 promoter activity; also recorded: reverse and normalize either SCH23390 or SKF81297-altered human DRD1 promoter activity"}]}]}
